The supplement of paper PMC10331698
± gives the standard deviation of the averaged measurements.

How the values were obtained:
[1] = compound: CCOC(=O)CC(=O)C(F)(F)C(F)(F)F [Ethyl pentafluoropropionyl acetate] (in DMSO); assay: level (log10 ratio to DMSO vehicle control); higher = higher biomarker level / cell amount than vehicle control
Procedure: (§1)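 BioMAP Diversity Plus panel of 12 human primary cell co-culture systems (3C, 4H, LPS, SAg, BT, BF4T, BE3C, CASM3C, HDF3CGF, KF3CT, MyoF, Mphg). Compounds were added 1 h before stimulation and left for 24 h (MyoF 48 h; BT 72 h for soluble read-outs or 6 d for IgG). Biomarkers were read by ELISA, cytotoxicity by SRB, PBMC viability and proliferation by Alamar Blue. Each well value was divided by the mean of 8 DMSO control wells on the same plate and log10 transformed; duplicate blinded samples were tested at 4 concentrations.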

[2] = compound: OCC(F)(F)C(F)(F)C(F)(F)C(F)(F)C(F)(F)C(F)(F)CO [1H,1H,8H,8H-Perfluorooctane-1,8-diol] (in DMSO); assay: as above
Procedure: as §1

Row | Test System | level (log10) ([1]; 6700 nM) | level (log10) ([1]; 20000 nM) | level (log10) ([1]; 60000 nM) | level (log10) ([2]; 6700 nM) | level (log10) ([2]; 20000 nM) | level (log10) ([2]; 60000 nM)
1 | 3C:CCL2/MCP-1 | -0.012 ± 0.0042 | -0.0185 ± 0.0035 | 0.002 ± 0.0085 | -0.006 ± 0.0014 | -0.0175 ± 0.0092 | 0.002 ± 0.027
2 | 3C:CD54/ICAM-1 | -0.0015 ± 0.012 | -0.01 ± 0.016 | 0.0025 ± 0.022 | 0.0045 ± 0.0035 | 0.0025 ± 0.019 | 0.0015 ± 0.022
3 | 3C:CD62E/E-Selectin | -0.0035 ± 0.013 | -0.007 ± 0.023 | 0.011 ± 0.0071 | 0.0005 ± 0.013 | -0.007 ± 0.0085 | 0.015 ± 0.013
4 | 3C:CD106/VCAM-1 | -0.0045 ± 0.0064 | -0.008 ± 0.0057 | -0.015 ± 0.0071 | -0.0205 ± 0.0021 | -0.018 ± 0.0042 | -0.007 ± 0.0057
5 | 3C:CD141/Thrombomodulin | -0.013 ± 0.0099 | -0.0185 ± 0.021 | -0.0455 ± 0.00071 | -0.015 ± 0.0057 | -0.0075 ± 0.016 | -0.001 ± 0.013
6 | 3C:CD142/Tissue Factor | -0.006 ± 0.0071 | -0.019 ± 0.031 | -0.033 | -0.0245 ± 0.026 | 0.0195 ± 0.026 | 0.0425 ± 0.012
7 | BE3C:Keratin 8/18 | 0.0105 ± 0.022 | 0.0095 ± 0.033 | 0.001 ± 0.0085 | -0.0155 ± 0.022 | -0.017 ± 0.0014 | -0.0375 ± 0.0035
8 | BE3C:MMP-1 | -0.01 ± 0.013 | -0.023 ± 0.018 | 0.021 ± 0.0014 | 0.0125 ± 0.012 | -0.0055 ± 0.013 | 0.0425 ± 0.056
9 | BE3C:MMP-9 | 0.006 ± 0.044 | -0.0145 ± 0.033 | -0.0065 ± 0.013 | -0.001 ± 0.028 | 0.0005 ± 0.016 | 0.0015 ± 0.005
10 | BE3C:PAI-I | 0.008 ± 0.0014 | -0.006 ± 0.014 | 0.0045 ± 0.018 | 0.025 ± 0.024 | 0.031 ± 0.0099 | 0.0325 ± 0.011
11 | BE3C:SRB | -0.002 ± 0.0042 | -0.0015 ± 0.0035 | 0.002 ± 0.0071 | -0.003 ± 0.0028 | -0.0025 ± 0.0021 | -0.0015 ± 0.0035
12 | BE3C:tPA | -0.019 ± 0.041 | -0.034 ± 0.038 | -0.028 ± 0.035 | 0.0105 ± 0.016 | 0.01 ± 0.011 | 0.03 ± 0.0057
13 | BE3C:uPA | -0.0105 ± 0.013 | -0.011 ± 0.013 | -0.0195 ± 0.0035 | -0.012 ± 0.0071 | -0.0125 ± 0.005 | -0.009 ± 0.024
14 | CASM3C:CCL2/MCP-1 | -0.001 ± 0.0028 | 0.003 ± 0.0057 | 0.009 ± 0.027 | -0.0175 ± 0.011 | -0.024 ± 0.0057 | 0.0015 ± 0.019
15 | CASM3C:CD87/uPAR | 0.0015 ± 0.028 | -0.013 ± 0.0057 | -0.01 ± 0.017 | 0.0025 ± 0.0021 | -0.0325 ± 0.0092 | -0.036 ± 0.038
16 | CASM3C:CD106/VCAM-1 | -0.01 ± 0.0085 | -0.011 ± 0.0085 | -0.01 ± 0.023 | 0.0055 ± 0.022 | 0.02 ± 0.0028 | 0.05 ± 0.0085
17 | CASM3C:CD141/Thrombomodulin | -0.005 ± 0.0071 | -0.0005 ± 0.00071 | -0.0115 ± 0.018 | -0.018 ± 0.0071 | -0.02 ± 0.014 | -0.0005 ± 0.026
18 | CASM3C:CD142/Tissue Factor | -0.0235 ± 0.046 | -0.008 ± 0.031 | 0.0035 ± 0.012 | 0 ± 0.014 | 0 ± 0.023 | 0.012 ± 0.041
19 | CASM3C:CXCL8/IL-8 | 0.0045 ± 0.0035 | 0 | 0.0035 ± 0.0078 | -0.007 ± 0.027 | -0.0135 ± 0.022 | 0.007 ± 0.011
20 | CASM3C:CXCL9/MIG | -0.018 ± 0.03 | -0.0145 ± 0.0064 | -0.0035 ± 0.0092 | 0.0035 ± 0.012 | 0.016 ± 0.0028 | 0.0235 ± 0.021

Row | Test System | level (log10) ([1]; 6700 nM) | level (log10) ([1]; 20000 nM) | level (log10) ([1]; 60000 nM) | level (log10) ([2]; 6700 nM) | level (log10) ([2]; 20000 nM) | level (log10) ([2]; 60000 nM)
21 | CASM3C:HLA-DR | -0.0125 ± 0.0064 | -0.0185 ± 0.015 | -0.015 ± 0.014 | -0.0005 ± 0.018 | -0.026 ± 0.016 | -0.014 ± 0.014
22 | CASM3C:IL-6 | -0.022 ± 0.011 | -0.021 ± 0.023 | 0.009 ± 0.057 | -0.014 ± 0.0014 | -0.02 ± 0.0099 | -0.0005 ± 0.04
23 | CASM3C:LDLR | -0.0125 ± 0.019 | -0.002 ± 0.0085 | 0.0035 ± 0.013 | 0.0045 ± 0.005 | -0.0015 ± 0.0035 | 0.0075 ± 0.032
24 | CASM3C:M-CSF | -0.0145 ± 0.00071 | -0.0175 ± 0.0064 | -0.0025 ± 0.028 | -0.0185 ± 0.035 | -0.0215 ± 0.0078 | -0.012 ± 0.035
25 | CASM3C:PAI-I | 0.002 ± 0.0057 | 0.0055 ± 0.012 | 0.007 ± 0.0014 | -0.006 ± 0.0099 | -0.006 | 0.012 ± 0.0042
26 | CASM3C:Proliferation | -0.049 ± 0.04 | -0.014 ± 0.0085 | -0.0155 ± 0.00071 | -0.01 ± 0.0057 | -0.024 ± 0.0099 | -0.0305 ± 0.044
27 | CASM3C:SRB | 0.0035 ± 0.0021 | 0.0015 ± 0.0035 | 0.002 ± 0.011 | -0.001 ± 0.0085 | -0.001 ± 0.0085 | -0.007 ± 0.011
28 | CASM3C:Serum Amyloid A | 0.0005 ± 0.0035 | -0.012 ± 0.0014 | 0.0155 ± 0.029 | -0.013 ± 0.038 | -0.0215 ± 0.033 | -0.022 ± 0.035
29 | HDF3CGF:CCL2/MCP-1 | -0.022 ± 0.0042 | -0.0135 ± 0.005 | 0.009 ± 0.047 | -0.012 | -0.0175 ± 0.015 | -0.0185 ± 0.016
30 | HDF3CGF:CD54/ICAM-1 | 0.006 ± 0.017 | 0.0055 ± 0.0092 | -0.012 ± 0.034 | -0.01 ± 0.0099 | 0.009 ± 0.0099 | 0.019 ± 0.0014
31 | HDF3CGF:CD106/VCAM-1 | 0.007 ± 0.011 | -0.0025 ± 0.005 | 0.006 ± 0.02 | 0.02 ± 0.033 | 0.0365 ± 0.00071 | 0.017 ± 0.052
32 | HDF3CGF:CXCL8/IL-8 | -0.005 ± 0.0028 | -0.0045 ± 0.011 | -0.002 ± 0.021 | 0.002 ± 0.0071 | -0.0015 ± 0.005 | 0.009 ± 0.0099
33 | HDF3CGF:CXCL9/MIG | 0.001 ± 0.0042 | -0.013 ± 0.0085 | -0.0185 ± 0.005 | 0.0025 ± 0.0021 | 0.045 ± 0.011 | 0.0245 ± 0.056
34 | HDF3CGF:CXCL10/IP-10 | -0.0125 ± 0.015 | -0.0105 ± 0.022 | -0.046 ± 0.0085 | -0.01 ± 0.014 | 0.018 ± 0.027 | 0.021 ± 0.034
35 | HDF3CGF:CXCL11/I-TAC | -0.0175 ± 0.029 | -0.026 ± 0.037 | -0.0425 ± 0.021 | 0.0145 ± 0.016 | 0.027 ± 0.017 | 0.017 ± 0.013
36 | HDF3CGF:Collagen I | -0.0205 ± 0.021 | -0.003 ± 0.051 | -0.0355 ± 0.0092 | 0.0025 ± 0.012 | 0.025 ± 0.016 | 0.0085 ± 0.035
37 | HDF3CGF:Collagen III | -0.02 ± 0.047 | -0.0505 ± 0.023 | -0.0895 ± 0.015 | -0.0175 ± 0.013 | -0.0195 ± 0.0092 | -0.016 ± 0.0057
38 | HDF3CGF:EGFR | -0.014 ± 0.0057 | -0.018 ± 0.017 | 0.0125 ± 0.037 | 0.006 ± 0.023 | 0.001 ± 0.018 | -0.0185 ± 0.026
39 | HDF3CGF:M-CSF | -0.022 ± 0.017 | -0.034 ± 0.037 | -0.0135 ± 0.094 | 0.0115 ± 0.029 | 0.015 ± 0.0085 | 0.0535 ± 0.054
40 | HDF3CGF:MMP-1 | 0.01 ± 0.028 | 0.022 ± 0.0071 | 0.029 ± 0.034 | 0.0005 ± 0.013 | -0.0025 ± 0.013 | 0.008 ± 0.0071
